Reference: patent US20080305102A1, “Therapeutic Agent for Cancer Comprising Substance Capable of Inhibiting Expression or Function of Synoviolin as Active Ingredient and Screening Method for the Therapeutic Agent for Cancer” (priority 2005, published 2008)

Tests used:
synoviolin and p53 mRNA = experiment: mRNA levels of synoviolin and p53 in RASCs under synoviolin RNAi (TaqMan); assay type: cell-based; conditions: 25 nM siRNA, cultured 4 d, 18S rRNA as control, FIG. 14
Description: RASCs were seeded on a 10 cm dish at 30,000 cells/dish, and were transfected with 25 nM of siRNA (No. 589) according to a routine method. The cells were then cultured for 4 d. During this period, cells were collected overtime to obtain mRNA. Random primers were used, with 1 μg of mRNA as a template, to perform reverse transcription reactions, and cDNAs were obtained. The obtained cDNAs were quantified using the ABI TaqMan Gene expression assay (GEX). The mRNA levels were calculated using 18S rRNA as control.
The GEX reagent target assay no. (Assay ID) is Hs00381211_m1 for synoviolin and Hs00153340_m1 for p53.

RA synovial cells = experiment: cell cycle of RA synovial cells after synoviolin siRNA (flow cytometer); assay type: cell-based; conditions: 25 nM siRNA, FIG. 7
Description: RA synovial cells were seeded on a 10 cm dish at 9.0×10^4 cells/dish, and were transfected with synoviolin siRNA (final concentration 25 nM). Then, the cell cycle was monitored by flow cytometer.

[1] = test system: T1, synoviolin (MBP-Syno ΔTM-His), substrate GST-p53 (Homo sapiens); experiment: in vitro ubiquitination reaction of GST-p53 by MBP-Syno ΔTM-His (Western blot, anti-p53 FL393); assay type: biochemical; conditions: 75, 150, 300 or 600 μM compound; FIG. 17B
T1 construct: GST-SynoΔTM 236-617:pGEX-5-1/S ΔTM; His tag (C); made in house; host or cells: E. coli
Description: E. coli (BL21) hosting pGEX/p53 was cultured in 500 mL of LB medium. After induction with IPTG (1 mM at 30° C. for 6 h), an extract was prepared from the culture solution, using buffer containing 0.5% NP-40. From the E. coli extract, GST-p53 was purified using a GSH-Sepharose resin in the presence of 0.1% NP-40. […] After the reaction, proteins were separated by 7.5% SDS-PAGE, and transferred onto a PVDF membrane, prior to detection of the p53 protein on the membrane using anti-p53 antibodies (FL393 or DO-1). Reaction and detection were performed with variations in the amount of GST-p53 added.
In the presence of GST-p53, varying concentrations (75 μM, 150 μM, 300 μM, or 600 μM) of compounds X and Y were added to the in vitro ubiquitination reaction system using MBP-Syno ΔTM-His. After reaction, proteins were separated by 7.5% SDS-PAGE, transferred onto a PVDF membrane, and then detected using the anti-p53 antibody FL393 (Santa Cruz Biotechnology).

RKO cells = experiment: cytotoxicity / cell survival rate in RKO cells (WST-8); assay type: cell-based, human; conditions: cultured 24-72 h with compound, FIG. 18
Description: RKO cells (a human colon carcinoma cell line; ATCC: CRL-2577) were seeded in Eagle's Minimum Essential Medium containing 10% fetal bovine serum in a 96-well microtiter plate (Falcon; non-coated) at 1,000 cells/100 μL/well, and cultured for 24 h. Compounds X and Y were dissolved in Eagle's Minimum Essential Medium containing 10% fetal bovine serum, and 10 μL amounts were added to wells. The cells were then cultured for 24-72 h.
After culture, WST-8 (2-(2-methoxy-4-nitrophenyl)-3-(4-nitrophenyl)-5-(2,4-disulfophenyl)-2H-tetrazolium, monosodium salt) was added to each well. After 2-4 h, absorbances at 450 nm were measured (reference wavelength: […]) and cell survival rates were calculated (FIG. 18).
The calculation method was based on the following formula: […]

[2] = test system: rheumatoid arthritis synovial cells (RASCs); experiment: suppression of RASC proliferation (MTT); assay type: cell-based; conditions: Synovial cell, after 72 h of culture, FIGS. 23 and 24, read-out: IC50, RASC cell survival
Description: The low molecular weight compounds termed No. 32 (Compound X) and No. 38 (Compound Y) were used as specimens. HFLS-RA medium (Cell Applications Inc.; Code CA40405) was used for RASC. RASCs were seeded in a 96-well microtiter plate at 1,000 cells/well, and cultured for 24 h in DMEM containing 10% fetal bovine serum (Kohjin Bio). Then, twofold serial dilutions of the specimens, beginning from a final concentration of 50 μM, were added to the cells. After 1, 24, and 48 h, 3-(4,5-dimethylthiazol-2-yl)-2,5-diphenyltetrazoliumbromide (MTT) was added to a final concentration of 0.5 mg/mL. After 2 h, the medium was aspirated, and the remaining formazan was dissolved with 50 μL of dimethyl sulfoxide. Then, absorbances at […] were measured. The absorbances of the group treated with the specimens were used to calculate cell survival rates, with 0% representing the absorbance of the group without cells or specimen, and 100% representing the absorbance of the group without specimen.

p53 protein = p53 protein expression level in RKO cells (Western blotting); assay type: cell-based, human; conditions: 5, 10 or 20 μM, 24 h, FIG. 19
Description: Fractions of homogenized cells were prepared from various cells using a cell homogenizing solution (50 mM Tris-HCl [pH 8.0], 150 mM NaCl, 1% NP40, 1 mM PMSF, 0.1% sodium dodecyl sulfate (SDS), 2 μg/mL leupeptin, 2 μg/mL aprotinin, and 2 μg/mL pepstatin). Then, fractions of homogenized cells were separated by SDS-PAGE. After SDS-PAGE, the cell-derived proteins were transferred onto a nitrocellulose (NC) membrane by an electroblotting method. This NC membrane was blocked with Tris buffered saline (TBS) with 5% skim milk at room temperature for 1 h, and then immunoreacted with anti-p53 antibody C-terminal aa; 195-393 or FL393, both of which were diluted in TBS with 5% skim milk, at room temperature for 1 h. The NC membrane after reaction was washed with 0.1% Tween 20/TBS, and then immunoreacted with horse radish peroxidase (HRP)-labeled anti-rabbit IgG antibody as secondary antibody, at room temperature for 1 h. The membrane was washed with 0.1% Tween 20/TBS, and HRP activity was sought to detect the target antigen. An ECL kit (Amersham) was used to detect HRP activity […]).
RKO cells were treated with compound Y, and changes in p53 protein expression level were examined by Western blotting. Specifically, RKO cells were seeded in 10 cm plates at 5.0×10^5 cells/plate, and cultured for 24 h. […]

[3] = test system: phosphorylation of Ser15 of p53 (ATM and ATR); experiment: p53 Ser15 phosphorylation in RKO cells treated with synoviolin siRNA, with or without caffeine (Western blotting); assay type: cell-based, human; conditions: caffeine 10 mM, both 12 h and 24 h after the addition, FIG. 5
Description: RKO cells (human colon cancer cells), which had been confirmed to express wild-type p53, were seeded on a 60 mm plate at 1.0×10^5 cells/plate/2 mL), and were transfected with siRNA oligonucleotides against GFP and synoviolin, using Oligofectamine. After 72 h, caffeine (10 mM), an inhibitor of ATM (ataxia-telangiectasia mutated) and ATR (an ATM and Rad3-related), which are important in the phosphorylation of […], was added. Then, Western blotting was performed using Phospho-p53 ([…]), an antibody to the phosphorylated […]-p53.

T1 sequence (Q86TM6 236-617 E545G): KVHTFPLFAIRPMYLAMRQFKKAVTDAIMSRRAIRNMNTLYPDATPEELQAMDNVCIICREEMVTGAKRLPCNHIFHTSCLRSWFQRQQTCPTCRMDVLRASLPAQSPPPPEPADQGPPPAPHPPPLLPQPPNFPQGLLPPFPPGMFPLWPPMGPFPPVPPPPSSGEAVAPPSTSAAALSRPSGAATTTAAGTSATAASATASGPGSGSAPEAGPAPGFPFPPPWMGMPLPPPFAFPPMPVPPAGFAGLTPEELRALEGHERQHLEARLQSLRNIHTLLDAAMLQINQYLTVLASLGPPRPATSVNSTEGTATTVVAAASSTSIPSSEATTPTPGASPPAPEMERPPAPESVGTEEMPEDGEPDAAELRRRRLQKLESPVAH

Molecule	inhibition of the GST-p53 ubiquitination reaction [1]	cell proliferation / cell survival rate of RKO cells (RKO cells)	IC50 [2] [µM]	other results
h589: double-stranded RNA in which sense strand SEQ ID NO: 18 and antisense strand SEQ ID NO: 19 are annealed; synoviolin siRNA (sense GGUGUUCUUUGGGCAACUGTT; antisense CAGUUGCCCAAAGAACACCTT; chemistry not given here)				level of p53 mRNA (synoviolin and p53 mRNA): unchanged; level of synoviolin mRNA (synoviolin and p53 mRNA): decreased; cell cycle (RA synovial cells): delay in the cell cycle at the G0/G1 phase
CN(C)c1nc(N/N=C/c2cc([N+](=O)[O-])ccc2O)nc(Nc2ccc(F)cc2)n1 [compound Y]	inhibited the GST-p53 ubiquitination reaction in a concentration-dependent manner	cell proliferation was suppressed	~6	p53 protein expression level (p53 protein): increased
Cn1c(=O)c2c(ncn2C)n(C)c1=O [caffeine]				inhibition of the siRNA-enhanced phosphorylation of p53 Ser15 [3]: completely inhibited
COc1ccc(/C=N/Nc2nc(Nc3ccc([N+](=O)[O-])cc3)nc(N3CCN(C)CC3)n2)cc1OC [compound X]	inhibited the GST-p53 ubiquitination reaction in a concentration-dependent manner	cell proliferation was suppressed	20	
